Experimental data published in PMC3827828, “Novel angiotensin I-converting enzyme inhibitory peptides derived from an edible mushroom, Pleurotus cystidiosus O.K. Miller identified by LC-MS/MS” (BMC Complementary and Alternative Medicine, 2013).
Entries after “also recorded” stand apart in the source; their conditions may differ. Like-named read-outs stand apart in the source and are kept apart here. Peptide text beside a SMILES is read from it.

Assays:
[1] = biological target: T1, Angiotensin I-converting enzyme (ACE) (Homo sapiens, UniProt P12821); assay: ACE inhibitory activity assay (ACE kit-WST); type: biochemical; conditions: synthesised peptide, absorbance 450 nm, triplicate, mean ± standard deviation
T1 construct: purchased Dojindo Laboratories ACE kit-WST
Procedure: (§1) In the current study, ACE inhibitory activity was determined using an ACE inhibitory assay kit (ACE kit-WST, Dojindo Laboratories, Kumamoto, Japan). The assay was carried out according to the protocol provided by the manufacturer. Absorbances of the reactions were measured using a Sunrise® ELISA microplate reader (Tecan, Grödig, Austria) at 450 nm. The ACE inhibitory activity of the samples was calculated using the formula given in the protocol. The concentration of the ACE inhibitor required to inhibit 50% of ACE activity under the above assay conditions was defined as the IC50.
The analysis of ACE inhibitory activity was carried out in triplicate and result was reported as mean ± standard deviation. Mean differences of ACE inhibitory activity in SEC fractions was analyzed using one-way ANOVA in Statgraphics Plus 3.0 at p < 0.05.

[2] = biological target: T1, Angiotensin I-converting enzyme (ACE); assay: ACE inhibitory activity after simulated gastrointestinal digestion; type: biochemical; conditions: mean, n = 3; for inhibition at 100 µg/mL (stock): 0.1 mg/ml, pepsin 2.5 hrs, then pH 8.0, 0.025% chymotrypsin and 0.025% trypsin, another 2.5 hrs, read-out: ACE inhibitory activity after pepsin-pancreatin digestion; for inhibition at 100 µg/mL (stock) / ACE inhibitory activity after digestion by pepsin: 37°C; for ACE inhibitory activity without gastrointestinal digestion (control): peptide solution 0.1 mg/ml incubated in buffer solutions (HCl and potassium phosphate buffer); for ACE inhibitory activity after digestion by pepsin: peptide solution 0.1 mg/ml with 0.05% pepsin (0.1 M HCl, pH 2.0), 2.5 hrs
Procedure: as §1
(§2) The stability of the synthesised peptides against gastrointestinal proteases was assessed in vitro by the method of Wu and Ding. The peptide solution (0.1 mg/ml, 0.5 ml) was incubated with 0.5 ml of a 0.05% pepsin solution (0.1 M HCl at pH 2.0) for 2.5 hrs at 37°C. In the successive pepsin-pancreatin digestion test, the peptide solution was adjusted to pH 8.0 after pepsin digestion. Then, 0.5 ml of pancreatin solution [potassium phosphate buffer (0.1 M, pH 8.0) containing 0.025% (w/v) chymotrypsin and 0.025% (w/v) trypsin] was added to the solution. The mixture was incubated for another 2.5 hrs at 37°C. The control (without digestion) consisted of peptide solution incubated in buffer solutions (HCl and potassium phosphate buffer) and was carried out alongside the experiment. After enzymatic treatment, the pepsin solution and pepsin-pancreatin solution were boiled for 10 min to stop the digestion and then centrifuged at 10,000 rpm for 10 min. The supernatants were freeze-dried and used for the measurement of ACE inhibitory activity. The stability of the purified peptides against gastrointestinal enzymes was analysed by SEC.
Figure 3 Effect of simulated gastrointestinal digestion on the ACE inhibitory activity of peptides AHEPVK and GPSMR. Control: The peptide solutions (0.1 mg/ml) were incubated in buffer solutions (HCl and potassium phosphate buffer). P: The peptide solutions were incubated with 0.05% pepsin solution for 2.5 hrs at 37°C. P + T + C: The peptide solutions were successively digested with pepsin for 2.5 hrs. They were further incubated in pancreatin solution for another 2.5 hrs at 37°C. The ACE inhibitory activity are expressed as mean ± standard deviation (n = 3).

[3] = tested on: pepsin, trypsin and chymotrypsin; assay: Stability against gastrointestinal enzymes observed by SEC; type: in vitro ADME; conditions: 0.1 mg/ml; pepsin pH 2.0 2.5 hrs, then trypsin + chymotrypsin pH 8.0 2.5 hrs, 37°C; Biosep SEC-S2000, UV 214 nm
Procedure: as §2
Figure 4 Stability of peptide AHEPVK against gastrointestinal enzymes observed by SEC chromatograms. Separation was performed on a Biosep SEC-S2000 column (300 × 7.8 mm). Mobile phase consisted of 45% acetonitrile containing 0.1% TFA eluted at a flow rate of 1.0 ml/min. […]

ACE = conditions: cited from earlier work
Procedure: Peptide LRIPVA from spinach inhibited 50% of the ACE at a concentration as low as 0.38 μM [29]. However, there were also studies reported on similar IC50 value with the current study. […] It was predicted to remain stable throughout the digestion process. […] Jimsheena and Gouda had shown the important role of stere ... || (+ 2 further places)

[4] = peptides from milk and bonita fish

T1 sequence (P12821 30-1306, species assumed): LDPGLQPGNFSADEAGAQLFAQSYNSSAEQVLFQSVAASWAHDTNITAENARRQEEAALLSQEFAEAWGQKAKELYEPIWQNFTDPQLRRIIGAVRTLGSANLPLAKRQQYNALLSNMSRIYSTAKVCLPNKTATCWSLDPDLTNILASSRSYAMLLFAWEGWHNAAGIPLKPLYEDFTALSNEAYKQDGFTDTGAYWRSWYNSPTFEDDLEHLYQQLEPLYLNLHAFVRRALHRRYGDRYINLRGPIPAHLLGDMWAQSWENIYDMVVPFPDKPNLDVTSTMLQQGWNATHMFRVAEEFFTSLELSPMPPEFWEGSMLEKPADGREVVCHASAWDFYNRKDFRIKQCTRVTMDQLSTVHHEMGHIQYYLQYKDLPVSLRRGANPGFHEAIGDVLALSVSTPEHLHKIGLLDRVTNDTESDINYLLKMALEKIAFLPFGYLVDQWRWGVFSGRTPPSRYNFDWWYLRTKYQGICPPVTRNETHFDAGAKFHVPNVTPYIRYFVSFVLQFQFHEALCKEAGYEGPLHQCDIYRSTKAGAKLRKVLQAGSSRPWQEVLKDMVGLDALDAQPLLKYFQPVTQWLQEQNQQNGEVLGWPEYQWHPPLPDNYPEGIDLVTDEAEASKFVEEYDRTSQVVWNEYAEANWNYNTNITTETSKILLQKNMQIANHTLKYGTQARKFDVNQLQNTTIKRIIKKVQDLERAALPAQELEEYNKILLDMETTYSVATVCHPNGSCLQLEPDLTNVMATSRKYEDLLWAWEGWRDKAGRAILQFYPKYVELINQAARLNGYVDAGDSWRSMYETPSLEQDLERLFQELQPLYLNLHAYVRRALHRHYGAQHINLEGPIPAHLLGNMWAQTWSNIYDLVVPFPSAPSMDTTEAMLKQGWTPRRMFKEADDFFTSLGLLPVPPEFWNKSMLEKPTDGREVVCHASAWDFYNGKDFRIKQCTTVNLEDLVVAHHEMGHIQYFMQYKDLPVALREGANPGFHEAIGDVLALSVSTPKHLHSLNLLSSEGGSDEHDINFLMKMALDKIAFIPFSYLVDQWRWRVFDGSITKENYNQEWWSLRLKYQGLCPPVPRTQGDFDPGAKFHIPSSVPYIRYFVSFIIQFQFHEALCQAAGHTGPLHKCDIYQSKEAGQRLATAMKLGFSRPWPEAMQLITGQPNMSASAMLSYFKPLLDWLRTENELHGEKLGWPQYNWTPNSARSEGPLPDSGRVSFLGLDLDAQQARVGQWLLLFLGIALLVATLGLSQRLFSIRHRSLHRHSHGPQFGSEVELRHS

CC(C)[C@H](NC(=O)[C@@H]1CCCN1C(=O)[C@H](CCC(=O)O)NC(=O)[C@H](Cc1c[nH]cn1)NC(=O)[C@H](C)N)C(=O)N[C@@H](CCCCN)C(=O)O [AHEPVK] (H-AHEPVK-OH)
IC50 [1]: 62.8 µM | inhibition at 100 µg/mL (stock) [2]: 95.9% | ACE inhibitory activity without gastrointestinal digestion (control) [2]: 80.27% | ACE inhibitory activity after digestion by pepsin [2]: 95.38% | Stability of peptide against gastrointestinal enzymes (SEC chromatograms) [3]: stable throughout gastrointestinal digestion; also recorded: confirmed the stability of AHEPVK against digestive enzymes; also recorded: remained stable following gastrointestinal digestion

CSCC[C@H](NC(=O)[C@H](CO)NC(=O)[C@@H]1CCCN1C(=O)CN)C(=O)N[C@@H](CCCNC(=N)N)C(=O)O [GPSMR] (H-GPSMR-OH)
IC50 [1]: 278 µM | inhibition at 100 µg/mL (stock) [2]: 96% | ACE inhibitory activity without gastrointestinal digestion (control) [2]: 67.08% | ACE inhibitory activity after digestion by pepsin [2]: 92.22% | Stability of peptide against gastrointestinal enzymes (SEC chromatograms) [3]: hydrolysed after digestion; also recorded: hydrolysed into smaller fragments

C[C@H](CS)C(=O)N1CCC[C@H]1C(=O)O [captopril]
Inhibition pattern against ACE (ACE): competitive manner

GPCSR [peptide from sweet potato]
IC50 (ACE; peptides from sweet potato): 276 µM

GTEKC [peptide from sweet potato]
IC50 (ACE; peptides from sweet potato): 61.7 µM

LKPNM [pentapeptide from bonita fish]
IC50 (ACE; [4]): 2.4 µM

LRIPVA [peptide from spinach]
IC50 (ACE; peptide from spinach): 0.38 µM

PYVRYL [hexapeptide from milk]
IC50 (ACE; [4]): 2.4 µM
